{"source": "patent US20240009269A1", "about": "(priority 2020, published 2024)", "key": {"dhBMECs monolayers": {"tested_on": "dhBMECs monolayers", "experiment": "Melittin-induced disruption of dhBMEC monolayers (transwell assay)", "assay_type": "cell-based, human", "description": "Induced pluripotent stem cell (iPSC)-derived brain microvascular endothelial cells (dhBMECs) mimic the barrier function of the human BBB. DhBMECs were differentiated as previously reported. The BC1 iPSC line derived from a healthy individual was used for all experiments. After eleven days of differentiation, cells were detached using Accutase (A1110501, Thermo Fisher Scientific), and seeded onto transwells, glass slides, or type I collagen microchannels coated overnight with 50 μg mL^−1 human placental collagen IV (Catalog Number (Cat. No.) C5533, Sigma-Aldrich) and 25 μg mL^−1 fibronectin from human plasma (Cat. No. F1141, Sigma-Aldrich). Cells have previously been characterized for expression of tight junction proteins, efflux pumps, and nutrient transporters as well as measurements of barrier function including transendothelial electrical resistance (TEER) or solute permeability. Here, cells with TEER of at least 1500 Ω cm2 were used for all experiments. After detachment, cells were cultured in BBB induction medium: human endothelial cell serum-free medium (HESFM) (Cat. No. 11111044, Thermo Fisher Scientific) supplemented with 1% human platelet poor derived serum (Cat. No. P2918, Sigma-Aldrich), 1% penicillin-streptomycin (Cat. No. 15140122, Thermo Fisher Scientific), 2 ng mL^−1 bFGF (Cat. No. 233FB025CF, Fisher Scientific), and 10 μM all-trans retinoic acid (Cat. No R2625, Sigma-Aldrich). After 24 hours, cells were further cultured in BBB maintenance medium: HESFM supplemented with 1% human platelet poor derived serum and 1% penicillin-streptomycin. Human cortical neuron HCN-2 cells (CRL-10742) were obtained from ATCC (Manassas, VA, USA). HCN-2 cells were cultured in DMEM (Cat. No. 31600091, Thermo Fisher Scientific), adjusted to contain 1.5 g L^−1 sodium bicarbonate, 4.5 g L^−1 D-glucose, and supplemented with 10% heat-inactivated FBS (Cat. No. F4135, Sigma-Aldrich), following ATCC recommendations.\nCorning transwell supports (Cat. No. 3470) were coated with 25 μg mL^−1 fibronectin and 50 μg mL^−1 collagen IV overnight at 37° C. DhBMECs were seeded on transwells in BBB induction medium at 10^6 cells cm^−2. […] On day 2, the TEER for monolayers was measured using EVOM-2 and STX-100 electrode (World Precision Instruments, Sarasota, FL), and monolayers with TEER>1500 Ω cm2 were used for the permeability experiment. […] After the permeability experiment, the TEER across monolayers was measured. Dextran fluorescence in the receiving chamber and in the initial apical solution (Co) was measured using the Synergy H4 plate reader (Biotek Instruments Inc., Winooski, VT) and was converted to dextran concentrations using the dextran-fluorescein standard curves. The apparent permeability (Papp) was calculated from Formula 1 below: […]"}, "[1]": {"tested_on": "2D dhBMEC monolayers (ZO1)", "experiment": "Immunocytochemistry of zona occludens-1 in 2D dhBMEC monolayers", "assay_type": "cell-based, human", "description": "Antibodies used in the study are described in Table 3. LabTek 8-chamber slides (Cat. No. 155411, Thermo Fisher Scientific) were coated with 25 μg mL^−1 fibronectin and 50 μg mL^−1 collagen IV overnight at 37° C. BC1 cell were seeded in BBB induction medium at 5×10^5 cells cm^−2. On day 1 after seeding, dhBMECs were washed twice with BBB maintenance medium and incubated in the medium overnight. On day 2, the cells were washed twice with BBB maintenance medium and treated with 1.5 μM, 5 μM, and 10 μM of melittin, diluted in the medium, for 2 minutes, 5 minutes, 10 minutes, or 90 minutes. The resulting melittin dosages, calculated as the product of melittin concentration and incubation time, were 3 μM·minutes, 25 μM·minutes, 100 μM minutes, and 450 μM·minutes. A negative control without melittin was included with every experiment. After the melittin incubation, the cells were washed twice with 1×PBS azide and fixed in 3.7% paraformaldehyde solution for 10 minutes or methanol for 15 minutes. The fixed cells were washed with 1×PBS azide and incubated in blocking solution (10% goat serum, 0.3% TritonX-100 in 1×PBS azide) at 4° C. for 1-2 days. The cells were incubated with primary antibodies for 2 hours at room temperature. […]"}, "mouse brain": {"tested_on": "mouse brain", "experiment": "Safety of BBBO in mice (neurological deficits, MRI, histology)", "assay_type": "in vivo", "description": "273-285] in ImageJ. […] Subsequently, animals were sacrificed for further histological assessment.\nIn brief, each post-contrast image was first fitted into two Gaussian distributions, and the cutoff of signal intensity was determined. Data analysis and calculation of area fraction was performed using custom-written MATLAB scripts. 24 hours and 7 days after melittin treatment, animals were trans-cardially perfused with 5% sucrose in deionized water and then 4% paraformaldehyde in phosphate buffered saline. The brains were cryopreserved in 30% sucrose and cryo-sectioned in 30 μm slices. Primary antibodies used in the study are described in Table 2. Goat anti-rabbit Alexa Fluor-488 or Alexa Fluor-594 (1:250, Life Technologies) were used as secondary antibodies for fluorescence assessment using an inverted microscope (Zeiss, Axio Observer Z1). For demyelination assessment, eriochrome cyanine R staining was performed as described previously [Golubczyk, D., et al., Mol Neurobiol, 2019. 56(8): p. 5740-5748] with assessment using bright-field microscopy. Quantitation of immunohistochemistry (based on relative fluorescence intensity) and MRI analysis (based on intensity) were performed using Image J. For each mouse, three ROIs of the ipsilateral and contralateral BBBO regions were drawn, respectively."}, "mice": {"tested_on": "mice", "conditions": "intraperitoneal administration; cited from earlier work"}}, "data": [{"smiles": "CC[C@H](C)[C@H](NC(=O)CN)C(=O)NCC(=O)N[C@@H](C)C(=O)N[C@H](C(=O)N[C@@H](CC(C)C)C(=O)N[C@@H](CCCCN)C(=O)N[C@H](C(=O)N[C@@H](CC(C)C)C(=O)N[C@H](C(=O)N[C@H](C(=O)NCC(=O)N[C@@H](CC(C)C)C(=O)N1CCC[C@H]1C(=O)N[C@@H](C)C(=O)N[C@@H](CC(C)C)C(=O)N[C@H](C(=O)N[C@@H](CO)C(=O)N[C@@H](Cc1c[nH]c2ccccc12)C(=O)N[C@H](C(=O)N[C@@H](CCCCN)C(=O)N[C@@H](CCCNC(=N)N)C(=O)N[C@@H](CCCCN)C(=O)N[C@@H](CCCNC(=N)N)C(=O)N[C@@H](CCC(N)=O)C(=O)N[C@@H](CCC(N)=O)C(N)=O)[C@@H](C)CC)[C@@H](C)CC)[C@@H](C)O)[C@@H](C)O)C(C)C)C(C)C", "note": "[melittin]", "values": [{"measurement": "concentrations for membrane activity", "setting": "dhBMECs monolayers", "result": "1 to 10", "unit": "µM"}, {"measurement": "500 kDa dextran permeability across dhBMECs", "setting": "dhBMECs monolayers; 5 μM melittin for 90 minutes, transwell", "result": "increased"}, {"measurement": "concentration above which disruption is induced in confluent monolayers", "setting": "dhBMECs monolayers; confluent dhBMEC monolayers", "result": "above 1 μM"}, {"measurement": "cell morphology (phase contrast)", "setting": "dhBMECs monolayers; dhBMECs on glass slides, 5 μM melittin for 90 minutes", "result": "cell swelling and detachment"}, {"measurement": "monolayer integrity", "setting": "[1]; 450 μM·minute dose", "result": "significant cell detachment was observed"}, {"measurement": "ZO1 protein expression compared to controls", "setting": "[1]; doses of 3-100 μM·minute", "result": "did not result in large changes"}, {"measurement": "long-term survival (30 days)", "setting": "mouse brain; 3 μM·minute", "result": "reached that endpoint without complications"}, {"measurement": "mortality", "setting": "mouse brain; 3 μM·minute, 11 mice", "result": "One mouse in this group died within 12 hours"}, {"measurement": "neurological deficits (paralysis, seizure, or rotation)", "setting": "mouse brain; 3 μM·minute, 11 mice", "result": "all animals except one woke up from anesthesia without apparent neurological deficits"}, {"measurement": "GFAP, Iba1, NeuN, and caspase-3 intensities between hemispheres", "setting": "mouse brain; 3 μM·minute, 24 hours", "result": "not statistically different"}, {"measurement": "MRI (T2, SWI)", "setting": "mouse brain; 3 μM·minute, 24 hours", "result": "no evidence of edema or inflammation on T2 scans or micro-hemorrhages on susceptibility weighted imaging (SWI) scans"}, {"measurement": "GFAP and Iba1 intensity, ipsilateral vs contralateral", "setting": "mouse brain; 3 μM·minute, 7 days", "result": "no statistically significant differences"}, {"measurement": "MRI", "setting": "mouse brain; 3 μM·minute, 7 days", "result": "no abnormalities were detected"}, {"measurement": "NeuN and caspase-3 intensity in the ipsilateral hemisphere", "setting": "mouse brain; 3 μM·minute, 7 days", "result": "no statistically significant change"}, {"measurement": "eriochrome cyanine staining (myelin)", "setting": "mouse brain; 3 μM·minute, 7 days, hippocampus", "result": "normal myelin"}, {"measurement": "behavior after dosing", "setting": "mouse brain; 5 μM·minute", "result": "mice displayed rotational behavior indicating neurological damage"}, {"measurement": "LD50", "setting": "mice", "result": 3.2, "unit": "mg/kg"}]}]}
